These results are taken from patent EP2719375A1, “Cannabinoids for the treatment of cancers dependent on hedgehog mechanisms” (Max-Planck-Gesellschaft zur Förderung der Wissenschaften …, priority 2012, dated 2014).

In one assay the target is T1, Smo (Drosophila melanogaster, UniProt P91682).
T1 construct: from tissue; host or cells: explanted wing imaginal discs from wild type and LppRNAi Drosophila larvae
T1 sequence (P91682 32-1036): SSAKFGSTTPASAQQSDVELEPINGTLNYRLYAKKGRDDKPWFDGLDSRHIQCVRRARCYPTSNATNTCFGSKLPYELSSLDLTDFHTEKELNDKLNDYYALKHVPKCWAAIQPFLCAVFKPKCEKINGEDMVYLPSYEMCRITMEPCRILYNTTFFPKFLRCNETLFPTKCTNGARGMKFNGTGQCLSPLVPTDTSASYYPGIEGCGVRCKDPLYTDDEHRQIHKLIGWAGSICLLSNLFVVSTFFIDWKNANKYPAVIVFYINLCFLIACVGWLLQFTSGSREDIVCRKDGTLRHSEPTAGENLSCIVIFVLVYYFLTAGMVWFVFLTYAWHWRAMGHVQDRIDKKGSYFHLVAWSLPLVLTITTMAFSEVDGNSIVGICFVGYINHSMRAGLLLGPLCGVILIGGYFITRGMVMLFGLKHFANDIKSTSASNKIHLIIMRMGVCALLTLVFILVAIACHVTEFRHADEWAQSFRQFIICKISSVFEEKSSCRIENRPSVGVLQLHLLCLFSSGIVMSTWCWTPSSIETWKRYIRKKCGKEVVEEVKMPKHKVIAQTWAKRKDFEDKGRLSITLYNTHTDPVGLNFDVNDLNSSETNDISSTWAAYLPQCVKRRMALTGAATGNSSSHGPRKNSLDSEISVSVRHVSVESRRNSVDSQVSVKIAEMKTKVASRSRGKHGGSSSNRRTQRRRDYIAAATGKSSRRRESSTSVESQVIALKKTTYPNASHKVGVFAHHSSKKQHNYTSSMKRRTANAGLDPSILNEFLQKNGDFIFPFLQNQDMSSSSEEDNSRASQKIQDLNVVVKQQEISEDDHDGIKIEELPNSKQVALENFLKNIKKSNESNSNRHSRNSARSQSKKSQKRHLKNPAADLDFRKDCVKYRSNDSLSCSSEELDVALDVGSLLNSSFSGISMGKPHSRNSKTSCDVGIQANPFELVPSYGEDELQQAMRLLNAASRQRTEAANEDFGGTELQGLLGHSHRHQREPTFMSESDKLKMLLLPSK
The experiment in a line: Drosophila wing disc assay, Smo staining. The following applies: for ectopic Smo accumulation / stabilization: LppRNAi wing discs, DOPC liposomes, 2 hours; for effects on Hh signaling in Drosophila: wing discs, judged from Smo and Ci155 accumulation. How it is done:
(§1) Imaginal discs were fixed and stained as previously described (Marois et al., 2006). Antibodies were diluted as follows: anti-Ci 2A1 1:10 (Wang and Holmgren, Development, 126(22): p. 5097-106 (1999)), anti-Smo 1:50 (Lum et al., Mol Cell, 12(5): p. 1261-74 (2003)).
(§2) All quantified immunostaining was performed on discs that were dissected, fixed, stained and imaged in parallel using the same microscope settings. To quantify Ci155 and Smo staining intensities, three apical sections 0.7 µm apart were projected using maximal intensity in ImageJ. For each image, two rectangles of 100 pixels parallel to the A/P axis by 351 pixels parallel to the D/V axis were selected and centered at the A/P boundary in ventral and dorsal compartments. Average pixel intensity was determined as a function of distance from A/P boundary using PlotProfile and plotted using Microsoft Excel. All A/P boundaries were determined according to anti-Ci155 coimmunostaining. To estimate the significance of changes in staining intensities in discs of different genotypes, we measured Smo or Ci staining intensity at the same distance from the A/P boundary in each disc and calculated p values using Excel.
(§3) The assay was performed as previously described (Khaliullina et al., Development, 136(24): p. 4111-21 (2009)). Endocannabinoids were applied in DOPC vesicles at concentrations of up to 200µM.

In the next assay the test system is Ci155. The assay can be described thus: Drosophila wing disc assay, Ci155 staining. The conditions noted are these: LppRNAi wing discs, DOPC liposomes, 2 hours. How it is done: as §1, §2, §3
In assay [1] the test system is Shh signaling in ShhLIGHT2 cells. The experiment in a line: ShhLIGHT2 signaling assay (Gli-responsive Firefly:Renilla luciferase ratio). In kind it is cell-based, mammalian. The conditions noted are these: for effect on signaling in ShhLIGHT2 cells (pure compounds, column fractions): cells stimulated with non-lipoprotein-associated Shh; for inhibits Shh signaling: at 30µM. How it is done:
HeLa cells were passaged in DMEM with 10% fetal bovine serum (FBS, Gibco), 50 U/ml penicillin and 50µg/ml streptomycin (Gibco). To prepare non-lipoprotein-associated Shh, HeLa cells were transfected with plasmids encoding human Shh using polyethylenimine (Polysciences) in OptiMem (Invitrogen), then switched Shh-transfected HeLa cells to serum-free media (DMEM +1% Insulin-Transferrin-Selenium mixture (ITS-X, Gibco) 4 h post transfection. After 48 h, conditioned media were centrifuged at 1000 g for 20 min and concentrated using Amicon Ultra -10K (Millipore) for use in the signaling assay. Identically treated media from nontransfected HeLa cells were used as controls.
Shh-LIGHT2 cells (Taipale et al., 2000) were maintained in DMEM + 10% FBS, 150 µg/ml zeocin (Invitrogen) and 400 µg/ml G418 (Invitrogen). 24 h prior to assay, cells were plated at […] in 96-well plates. Cells were then switched to a serum-free medium consisting of DMEM + 1% ITS-X, and supplemented with combinations of Shh and different lipids. Lipids were added in DMSO. Luciferase activity was assayed in cell lysates after 24 h, as instructed by the manufacturer (Dual Glo Luciferase Assay, Promega).

Where [2] appears, read: Shh Light2, 24 h, read-out: EC50 (inhibits Shh signaling).
[3] abbreviates: Shh Light2, ShhLIGHT2 cells stimulated with Shh, serum-free medium, lipid added in DMSO, luciferase after 24 h, read-out: EC50 (inhibits Shh signaling).

Each structure is given as a SMILES string. Entries after “also recorded” stand apart in the source; their conditions may differ. Like-named read-outs stand apart in the source and are kept apart here.

Turning to `CCCCCCCC/C=C\CCCCCCCC(=O)NCCO` [N-acylethanolamide (18:1)], at Smo, the “ectopic Smo accumulation / stabilization” value is reported as “not decreased”. In the assay on Ci155, the “ectopic Ci155 accumulation” value is “not decreased”.

`C=C1CC[C@H](O)C/C1=C/C=C1\CCC[C@]2(C)[C@@H]([C@H](C)CCCC(C)C)CC[C@@H]12` [vitamin D3, reference compound]: on Smo, the “ectopic Smo accumulation / stabilization” value is “neither reversed Smo accumulation”. The “effect on signaling in ShhLIGHT2 cells (pure compounds, column fractions)” value (“effect … (pure compounds, column fractions)” below) in assay [1] is on record as “inhibited signaling”.

On to `CCCCCCCCCCCCCCCC(=O)NCCO` [N-acylethanolamide (16:0)], for which, at Smo, the “ectopic Smo accumulation / stabilization” value is “reverses ectopic Smo stabilization; also recorded: completely reverses ectopic accumulation of Smo” and the “effects on Hh signaling in Drosophila” value was “strong negative effects”. Also, the “ectopic Ci155 accumulation” value with Ci155 was “partially reverses Ci155 accumulation; also recorded: significantly reverses ectopic accumulation of Ci155”.

Take `CCCCC/C=C\C/C=C\C/C=C\C/C=C\CCCC(=O)NCCO` [N-acylethanolamide (20:4), arachidonyl ethanolamide]: on Smo, the “ectopic Smo accumulation / stabilization” value is “not decreased”. In addition, the “ectopic Ci155 accumulation” value with Ci155 is “not decreased”.

Turning to `CCCCCCCCCCCCCCCC(=O)NCCc1ccc(O)c(O)c1` [N-acyl dopamine (16:0)], the “ectopic Smo accumulation / stabilization” value at Smo is reported as “no activity”. The “ectopic Ci155 accumulation” value in the assay with Ci155 is “no activity”.

As to `CCCCCCCCCCCCCCCCCC(=O)NCCO` [N-acylethanolamide (18:0)], the “ectopic Smo accumulation / stabilization” value at Smo is on record as “not decreased”. Besides, the “ectopic Ci155 accumulation” value in the assay on Ci155 is “not decreased”.

As to `CCCCC/C=C\C/C=C\CCCCCCCC(=O)NCCO` [N-acylethanolamide (18:2), linoleylethanolamide], in assay [1], the “EC50 decreased by addition of FAAH inhibitor” value is above 10 fold. Besides, the entries for the “EC50 decreased by pre-incubation with lipoproteins” value in assay [1] and in assay [1] (pre-incubated with lipoproteins versus added in DMSO without prior incubation) were above 10 fold and “more than 10 fold”, respectively. Besides, the concentration giving a half-maximal response (EC50) (as a rule, the concentration at which the effect is half-maximal) in assay [1] (setting [2]) is around 15000 nM; in assay [1] (Shh Light2, in presence of PF-3845, a selective FAAH inhibitor, read-out: EC50), 500 nM. In addition, the “inhibits Shh signaling” value in assay [1] is reported as “almost completely”.

In the case of `CCCCCCCCCCCCCCCC(=O)NC(CO)C(=O)O` (centres unmarked) [N-acyl serine (16:0)], at Smo, the “ectopic Smo accumulation / stabilization” value was “no activity”. In addition, the EC50 in assay [1] (Shh Light2, ShhLIGHT2 cells stimulated with Shh, serum-free medium, lipid added in DMSO, read-out: EC50 (increases Shh signaling)) came out at 500 nM. Further, the “increases Shh signaling by” value in assay [1] (Shh-induced Firefly:Renilla increase normalized to 100) is 40%. For the same compound, the “effect … (pure compounds, column fractions)” value in assay [1] was “stimulated signaling”. Moreover, the “ectopic Ci155 accumulation” value in the assay with Ci155 is “no activity”.

In the case of `CCCCCc1cc(O)c2c(c1)OC(C)(C)c1ccc(C)cc1-2` [cannabinol], the EC50 in assay [1] (setting [3]) is below 1000 nM.

As for `CC(C)CCC[C@@H](C)[C@H]1CC[C@H]2C3=CC=C4C[C@@H](O)CC[C@]4(C)[C@H]3CC[C@]12C` [7-dehydrocholesterol, reference compound], the “ectopic Smo accumulation / stabilization” value on Smo is “neither reversed Smo accumulation”. In addition, the “effect … (pure compounds, column fractions)” value in assay [1] is reported as “inhibited signaling”.

For the compound `CCCCCCCCCCCCCCCCCC(=O)NCCc1ccc(O)c(O)c1` [N-acyl dopamine (18:0)], the EC50 in assay [1] (setting [2]) was 5000 nM. The inhibition at 30 µM in assay [1] (Shh Light2, read-out: inhibits Shh signaling by) is 80%.

Consider `CCCCC/C=C\C/C=C\C/C=C\C/C=C\CCCCOC(CO)CO` [2-glyceryl ether (20:4), 2-arachidonyl glyceryl ether], for which, on Smo, the “ectopic Smo accumulation / stabilization” value is given as “no activity” and the “effects on Hh signaling in Drosophila” value is on record as “complete inactivity”. Further, the EC50 in assay [1] (setting [3]) was 15000 nM. Besides, the “inhibits Shh signaling” value in assay [1] is “almost completely”. For the same compound, the “ectopic Ci155 accumulation” value in the assay on Ci155 was “no activity”.

Consider `C=C(C)[C@@H]1CCC(C)=C[C@H]1c1c(O)cc(CCCCC)cc1O` [cannabidiol], for which the EC50 in assay [1] (setting [3]) is below 1000 nM.
